Laboratory results reported in US10053465B2 (Incyte Corporation, priority 2015, dated 2018).
Read-outs that look alike come from different tables or passages of the source.

Key:
Phospho-Axl = Phospho-Axl (Homo sapiens (Human), UniProt P30530); assay: biochemical;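 also: test system is recombinant Axl protein that was first autophosphorylated with ATP and MgCl2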
Description: Autophosphorylation of Axl was carried out by incubating the recombinant Axl protein (Life Technologies, PV4275) in buffer containing 50 mM Tris, pH7.5, 0.2 mg/ml Axl, 5 mM ATP, 20 mM MgCl2 and 2 mM DTT at room temperature for 1 hour.
(§1) 0.1 ul test compounds dissolved in DMSO were transferred from compound plates to white 384-well assay plates (Greiner [sequence] plates). […] The plate was protected from light and incubated at room temperature for 60 min.

Tyro3 = Tyro3 (Homo sapiens (Human), UniProt Q06418); assay: biochemical; conditions: read-out: Tyro3IC50
Description: as §1

c-Mer [1] = target: T1, c-Mer (Homo sapiens (Human), UniProt Q12866); assay: biochemical
Description: as §1

JAK2 = JAK2 (Homo sapiens (Human), UniProt O60674); conditions: ratio of IC50 at 1 mM ATP; cited from earlier work
c-Mer [2] = target: T1, c-Mer; conditions: read-out: c-Mer IC50; HTRF, 60 min room temperature
Description: as §1

NK cells = conditions: Paolino et al., 2014; cited from earlier work
[3] = test system: tumor models with different histologies; conditions: Paolino et al., 2014; cited from earlier work

Phospho-Axl, sequence (P30530 26-894): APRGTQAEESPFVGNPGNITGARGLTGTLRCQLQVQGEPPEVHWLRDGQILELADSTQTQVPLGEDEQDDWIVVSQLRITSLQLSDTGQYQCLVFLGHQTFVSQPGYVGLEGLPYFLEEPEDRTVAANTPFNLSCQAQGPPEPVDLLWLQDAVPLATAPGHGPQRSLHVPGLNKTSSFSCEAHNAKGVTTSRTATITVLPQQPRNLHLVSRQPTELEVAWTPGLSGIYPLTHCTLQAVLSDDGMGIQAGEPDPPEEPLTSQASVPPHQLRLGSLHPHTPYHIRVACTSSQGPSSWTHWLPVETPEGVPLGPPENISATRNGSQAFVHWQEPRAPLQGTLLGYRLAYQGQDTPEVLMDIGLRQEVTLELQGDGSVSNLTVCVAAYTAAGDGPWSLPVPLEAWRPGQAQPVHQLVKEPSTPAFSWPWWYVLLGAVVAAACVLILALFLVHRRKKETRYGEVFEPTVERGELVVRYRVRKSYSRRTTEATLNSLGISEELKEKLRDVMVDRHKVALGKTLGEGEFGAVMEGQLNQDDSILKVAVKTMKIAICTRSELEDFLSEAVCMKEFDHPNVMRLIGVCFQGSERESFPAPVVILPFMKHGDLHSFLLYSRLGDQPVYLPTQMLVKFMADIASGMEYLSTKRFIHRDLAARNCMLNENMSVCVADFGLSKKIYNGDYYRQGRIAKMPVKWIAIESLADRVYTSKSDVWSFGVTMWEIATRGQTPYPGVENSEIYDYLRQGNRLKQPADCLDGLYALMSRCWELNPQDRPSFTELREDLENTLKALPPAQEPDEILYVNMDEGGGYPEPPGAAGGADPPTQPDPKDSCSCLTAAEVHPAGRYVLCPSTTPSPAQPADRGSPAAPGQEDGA
Tyro3, sequence (Q06418 41-890): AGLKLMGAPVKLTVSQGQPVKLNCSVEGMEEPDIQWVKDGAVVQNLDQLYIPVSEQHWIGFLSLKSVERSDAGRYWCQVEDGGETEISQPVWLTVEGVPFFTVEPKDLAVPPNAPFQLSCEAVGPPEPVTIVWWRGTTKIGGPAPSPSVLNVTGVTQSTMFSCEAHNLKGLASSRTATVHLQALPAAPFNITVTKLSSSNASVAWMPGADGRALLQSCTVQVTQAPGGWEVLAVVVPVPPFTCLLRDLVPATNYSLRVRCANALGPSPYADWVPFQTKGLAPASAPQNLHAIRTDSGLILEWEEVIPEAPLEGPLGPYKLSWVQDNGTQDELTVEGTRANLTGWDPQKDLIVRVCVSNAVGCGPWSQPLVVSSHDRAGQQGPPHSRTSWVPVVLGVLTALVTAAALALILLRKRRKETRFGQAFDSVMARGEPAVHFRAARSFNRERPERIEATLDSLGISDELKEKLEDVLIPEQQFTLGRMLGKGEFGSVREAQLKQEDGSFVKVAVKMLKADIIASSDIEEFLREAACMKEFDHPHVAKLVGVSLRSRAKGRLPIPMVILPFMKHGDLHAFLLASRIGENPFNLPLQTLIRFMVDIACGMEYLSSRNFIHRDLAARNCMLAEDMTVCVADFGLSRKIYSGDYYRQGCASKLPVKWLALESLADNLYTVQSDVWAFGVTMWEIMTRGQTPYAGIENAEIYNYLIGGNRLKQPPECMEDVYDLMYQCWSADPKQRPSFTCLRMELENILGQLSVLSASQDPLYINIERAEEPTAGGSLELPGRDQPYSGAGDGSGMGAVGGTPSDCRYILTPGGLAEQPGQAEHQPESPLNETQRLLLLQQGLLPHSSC
T1 sequence (Q12866 21-999): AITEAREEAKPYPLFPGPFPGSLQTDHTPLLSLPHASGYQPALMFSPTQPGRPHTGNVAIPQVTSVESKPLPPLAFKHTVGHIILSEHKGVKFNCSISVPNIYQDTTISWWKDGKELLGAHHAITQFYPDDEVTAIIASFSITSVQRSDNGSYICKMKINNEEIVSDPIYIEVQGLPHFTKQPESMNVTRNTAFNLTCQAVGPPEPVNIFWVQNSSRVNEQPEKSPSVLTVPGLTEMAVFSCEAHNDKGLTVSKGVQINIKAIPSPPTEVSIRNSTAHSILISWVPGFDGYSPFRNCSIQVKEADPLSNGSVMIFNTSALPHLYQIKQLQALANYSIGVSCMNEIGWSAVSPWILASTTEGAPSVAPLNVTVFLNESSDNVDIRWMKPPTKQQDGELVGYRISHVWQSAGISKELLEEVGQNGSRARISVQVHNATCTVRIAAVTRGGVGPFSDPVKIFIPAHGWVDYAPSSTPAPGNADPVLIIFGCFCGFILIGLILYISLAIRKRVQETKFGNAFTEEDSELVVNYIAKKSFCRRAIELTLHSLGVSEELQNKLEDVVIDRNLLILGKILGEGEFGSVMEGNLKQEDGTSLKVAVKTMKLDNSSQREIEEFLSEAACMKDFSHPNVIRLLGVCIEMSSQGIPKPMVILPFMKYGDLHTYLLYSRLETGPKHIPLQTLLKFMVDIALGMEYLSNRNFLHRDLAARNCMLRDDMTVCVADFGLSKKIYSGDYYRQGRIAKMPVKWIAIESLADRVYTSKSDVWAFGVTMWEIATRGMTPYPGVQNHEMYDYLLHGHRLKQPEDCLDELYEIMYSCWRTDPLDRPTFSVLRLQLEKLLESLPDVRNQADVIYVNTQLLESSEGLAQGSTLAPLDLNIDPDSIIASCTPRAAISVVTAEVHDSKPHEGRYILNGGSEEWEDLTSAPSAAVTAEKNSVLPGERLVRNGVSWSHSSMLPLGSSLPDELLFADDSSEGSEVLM
JAK2, sequence (O60674 whole entry, species assumed): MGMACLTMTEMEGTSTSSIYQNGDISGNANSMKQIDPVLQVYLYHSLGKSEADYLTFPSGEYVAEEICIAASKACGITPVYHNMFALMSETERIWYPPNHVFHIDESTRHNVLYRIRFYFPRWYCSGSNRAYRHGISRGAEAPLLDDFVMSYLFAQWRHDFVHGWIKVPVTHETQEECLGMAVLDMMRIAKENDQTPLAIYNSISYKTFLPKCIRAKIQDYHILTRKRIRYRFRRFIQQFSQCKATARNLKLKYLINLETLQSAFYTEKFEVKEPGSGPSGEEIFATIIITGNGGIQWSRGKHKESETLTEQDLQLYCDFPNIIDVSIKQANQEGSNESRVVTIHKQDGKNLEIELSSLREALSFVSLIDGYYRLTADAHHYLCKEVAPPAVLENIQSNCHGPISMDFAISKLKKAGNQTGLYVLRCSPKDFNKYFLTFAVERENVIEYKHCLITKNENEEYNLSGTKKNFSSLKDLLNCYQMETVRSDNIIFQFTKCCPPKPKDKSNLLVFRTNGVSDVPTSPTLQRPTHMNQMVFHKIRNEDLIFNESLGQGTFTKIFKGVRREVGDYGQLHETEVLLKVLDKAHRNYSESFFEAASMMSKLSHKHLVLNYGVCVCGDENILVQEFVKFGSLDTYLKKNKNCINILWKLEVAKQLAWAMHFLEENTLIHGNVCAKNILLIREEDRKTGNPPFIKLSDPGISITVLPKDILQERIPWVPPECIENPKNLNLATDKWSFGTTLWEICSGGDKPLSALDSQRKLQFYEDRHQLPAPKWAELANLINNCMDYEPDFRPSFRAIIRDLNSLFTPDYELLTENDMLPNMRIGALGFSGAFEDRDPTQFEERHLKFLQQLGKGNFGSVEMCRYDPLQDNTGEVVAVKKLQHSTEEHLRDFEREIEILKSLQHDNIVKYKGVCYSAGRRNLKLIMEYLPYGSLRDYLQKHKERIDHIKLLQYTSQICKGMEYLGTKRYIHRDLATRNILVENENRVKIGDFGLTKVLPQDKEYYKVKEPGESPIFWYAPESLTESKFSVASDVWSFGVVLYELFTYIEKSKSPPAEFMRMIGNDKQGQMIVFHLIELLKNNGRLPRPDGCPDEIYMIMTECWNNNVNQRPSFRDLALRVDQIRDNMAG

SMILES | IC50 (Phospho-Axl; HTRF, 60 min room temperature) [nM] | IC50 (Tyro3; HTRF, 60 min room temperature) [nM] | IC50 (Tyro3) [nM] | IC50 (c-Mer [2]) [nM] | other results
Cc1ncoc1C(=O)NCC1(c2cccc(-c3ncnc4[nH]ccc34)c2)Cc2ccccc2C1 [Example 30] | 500 to 1000 | > 3000 |  |  | IC50 (c-Mer [1]): 500 to 1000 nM
NCC1(c2cc(-c3ccnc4[nH]ncc34)ccn2)Cc2ccccc2C1 [Example 97, 1-{2-[4-(1H-Pyrazolo[3,4-b]pyridin-4-yl)pyridin-2-yl]-2,3-dihydro-1H-inden-2-yl}methanamine] | < 500 | 1000 to 3000 |  |  | IC50 (c-Mer [1]): < 500 nM
N#CCC1(n2cc(-c3ncnc4[nH]ccc34)cn2)CN(C2CCN(C(=O)c3ccnc(C(F)(F)F)n3)CC2)C1 [Compound 9, [3-[4-(7H-pyrrolo[2,3-d]pyrimidin-4-yl)-1H-pyrazol-1-yl]-1-(1-{[2-(trifluoromethyl)pyrimidin-4-yl]carbonyl}piperidin-4-yl)azetidin-3-yl]acetonitrile] |  |  |  |  | JAK2/JAK1 (JAK2): >10
CC(C)Nc1nc(-c2cccc(C3(CN)Cc4ccccc4C3)c2)c2cc[nH]c2n1 [Example 88, 4-{3-[2-(Aminomethyl)-2,3-dihydro-1H-inden-2-yl]phenyl}-N-isopropyl-7H-pyrrolo[2,3-d]pyrimidin-2-amine] | < 500 |  | > 3000 | < 500 | 
NCC1(c2cccc(-c3nc(NC4CCC4)nc4[nH]ccc34)c2)Cc2ccccc2C1 [Example 89, 4-{3-[2-(Aminomethyl)-2,3-dihydro-1H-inden-2-yl]phenyl}-N-cyclobutyl-7H-pyrrolo[2,3-d]pyrimidin-2-amine] | < 500 |  | < 500 | < 500 | 
CCn1cnc(-c2ccc3c(c2)CC(CN)(c2cccc(-c4ncnc5[nH]ccc45)c2)C3)c1 (stereo not drawn) [Example 76, 1-{5-(1-Ethyl-1H-imidazol-4-yl)-2-[3-(7H-pyrrolo[2,3-d]pyrimidin-4-yl)phenyl]-2,3-dihydro-1H-inden-2-yl}methanamine] |  | 500 to 1000 |  | < 500 | IC50 (Phospho-Axl): < 500 nM
Cn1nccc1C(=O)NCC1(c2cccc(-c3ncnc4[nH]ccc34)c2)Cc2ccccc2C1 [Example 32, 1-Methyl-N-({2-[3-(7H-pyrrolo[2,3-d]pyrimidin-4-yl)phenyl]-2,3-dihydro-1H-inden-2-yl}methyl)-1H-pyrazole-5-carboxamide] | > 3000 |  | > 3000 | > 3000 | 
CCOc1cn(-c2ccc(F)cc2C)nc1C(=O)Nc1ccc(Oc2ccnc3cc(OC)c(OC)cc23)c(F)c1 [LDC1267] |  |  |  |  | NK cell activation (NK cells): activates NK cells; metastasis in tumor models [3]: blocks metastasis in tumor models with different histologies
CCCCNc1nc(-c2cccc(C3(CN)Cc4ccccc4C3)c2)c2cc[nH]c2n1 [Example 80, 4-{3-[2-(Aminomethyl)-2,3-dihydro-1H-inden-2-yl]phenyl}-N-butyl-7H-pyrrolo[2,3-d]pyrimidin-2-amine] | < 500 |  | < 500 | < 500 | 
Cn1ccc(C(=O)NCC2(c3cccc(-c4ncnc5[nH]ccc45)c3)Cc3ccccc3C2)n1 [Example 29] | 1000 to 3000 | > 3000 |  |  | IC50 (c-Mer [1]): 1000 to 3000 nM
NCC1(c2cccc(-c3ncnc4[nH]ccc34)c2)Cc2ccc(CN3CC(O)C3)cc2C1 (stereo not drawn) [Example 48, 1-((2-(3-(7H-Pyrrolo[2,3-d]pyrimidin-4-yl)phenyl)-2-(aminomethyl)-2,3-dihydro-1H-inden-5-yl)methyl)azetidin-3-ol] | > 3000 | 1000 to 3000 |  | > 3000 | 
NCC1(c2cc(-c3nc(Nc4cccc(CN5CCOCC5)c4)nc4[nH]ccc34)ccn2)Cc2ccccc2C1 [Example 95, 4-{2-[2-(Aminomethyl)-2,3-dihydro-1H-inden-2-yl]pyridin-4-yl}-N-[3-(morpholin-4-ylmethyl)phenyl]-7H-pyrrolo[2,3-d]pyrimidin-2-amine] | < 500 |  | < 500 | < 500 | 
COc1cnc2[nH]ccc2c1-c1ccnc(C2(CN)Cc3ccccc3C2)c1 [Example 96, 1-{2-[4-(5-Methoxy-1H-pyrrolo[2,3-b]pyridin-4-yl)pyridin-2-yl]-2,3-dihydro-1H-inden-2-yl}methanamine] |  |  | < 500 | < 500 | IC50 (Phospho-Axl): < 500 nM
NCC1(c2cccc(-c3nc(NC4CCCCC4)nc4[nH]ccc34)c2)Cc2ccccc2C1 [Example 91, 4-{3-[2-(Aminomethyl)-2,3-dihydro-1H-inden-2-yl]phenyl}-N-cyclohexyl-7H-pyrrolo[2,3-d]pyrimidin-2-amine] | < 500 | 1000 to 3000 |  | < 500 | 
Cn1cc(Nc2nc(-c3ccnc(C4(CN)Cc5ccccc5C4)c3)c3cc[nH]c3n2)cn1 [Example 94, 4-{2-[2-(Aminomethyl)-2,3-dihydro-1H-inden-2-yl]pyridin-4-yl}-N-(1-methyl-1H-pyrazol-4-yl)-7H-pyrrolo[2,3-d]pyrimidin-2-amine] | < 500 |  | < 500 | < 500 | 
CNc1nc(-c2cccc(C3(CN)Cc4ccccc4C3)c2)c2cc[nH]c2n1 [Example 86, 4-{3-[2-(Aminomethyl)-2,3-dihydro-1H-inden-2-yl]phenyl}-N-methyl-7H-pyrrolo[2,3-d]pyrimidin-2-amine] | < 500 | 1000 to 3000 |  | < 500 | 
